{"source": "paper PMC8409457", "about": "“An evolution-inspired strategy to design disulfide-rich peptides tolerant to extensive sequence manipulation” (Chemical Science, 2021)", "key": {"[1]": {"target": "MDM2 (Homo sapiens, UniProt Q00987)", "sequence (Q00987 whole entry, species assumed)": "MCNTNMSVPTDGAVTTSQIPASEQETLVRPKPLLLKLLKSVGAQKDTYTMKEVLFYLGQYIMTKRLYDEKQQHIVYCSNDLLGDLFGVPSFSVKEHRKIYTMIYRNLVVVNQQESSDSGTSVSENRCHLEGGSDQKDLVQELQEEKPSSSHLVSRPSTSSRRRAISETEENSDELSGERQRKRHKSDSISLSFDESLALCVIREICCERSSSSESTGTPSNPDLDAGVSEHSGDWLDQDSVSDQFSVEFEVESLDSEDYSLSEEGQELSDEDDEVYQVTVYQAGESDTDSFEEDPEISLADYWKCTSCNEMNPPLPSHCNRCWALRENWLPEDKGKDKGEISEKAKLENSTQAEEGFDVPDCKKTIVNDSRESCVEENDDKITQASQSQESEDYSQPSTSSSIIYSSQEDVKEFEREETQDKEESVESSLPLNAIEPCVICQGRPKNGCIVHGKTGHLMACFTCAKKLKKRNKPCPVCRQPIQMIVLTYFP", "assay": "Fluorescence polarization competition assay, binding to MDM2", "procedure": "1.6 Fluorescence polarization (FP) assays\nInfinite® 200 PRO Microplate Reader. […]\ndata with the single-site binding model. […]\ndescribed above, and fluorescence anisotropies were recorded. The Ki value of the binding between […]\nbeen described in our previous reports.1,6\n(§1) 1.7 Surface plasmon resonance (SPR) assays\n(§2) SPR assays were performed using a Biacore T200. Target proteins (Sumo-Bcl-2 and […]"}, "[2]": {"target": "T1, Bcl-2 (Homo sapiens, UniProt P10415)", "T1 construct": "made in house; host or cells: E. coli", "T1 sequence (P10415 whole entry, species assumed)": "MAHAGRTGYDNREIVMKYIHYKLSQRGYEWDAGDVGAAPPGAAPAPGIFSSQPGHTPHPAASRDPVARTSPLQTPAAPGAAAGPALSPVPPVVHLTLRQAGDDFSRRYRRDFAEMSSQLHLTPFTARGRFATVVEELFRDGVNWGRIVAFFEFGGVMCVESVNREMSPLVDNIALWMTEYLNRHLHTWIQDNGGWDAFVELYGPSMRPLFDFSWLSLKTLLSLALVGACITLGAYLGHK", "assay": "Surface plasmon resonance (SPR), binding to immobilized Sumo-Bcl-2", "details": "for Binding affinity to Bcl-2 (SPR), in words: SPR sensorgrams, peptide 160–2560 nM", "procedure": "as §1, §2\n(§3) to reach a target response of 1000 RU. Flow cell Fc3 that was not immobilized with proteins was used as the reference channel. […]"}, "[3]": {"target": "T2, streptavidin (Streptomyces avidinii, UniProt P22629)", "T2 construct": "purchased Biosynthesis Biotechnology (Beijing, China)", "T2 sequence (P22629 25-183)": "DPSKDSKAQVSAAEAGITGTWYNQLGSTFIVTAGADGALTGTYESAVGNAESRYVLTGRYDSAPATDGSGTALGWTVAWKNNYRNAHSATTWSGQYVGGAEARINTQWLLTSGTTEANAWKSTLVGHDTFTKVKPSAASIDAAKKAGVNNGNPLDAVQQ", "assay": "Surface plasmon resonance (SPR), binding to immobilized streptavidin", "details": "SPR sensorgrams, peptide 20–320 nM", "procedure": "as §1, §2, §3"}, "[4]": {"system": "chymotrypsin", "assay": "Proteolytic stability of peptides toward chymotrypsin", "format": "in vitro ADME", "details": "100 μM peptide, phosphate buffer 100 mM pH 7.4, 37 °C, HPLC, 0–180 min", "procedure": "1.9 Proteolytic stability of peptides\n100 μM 15-Ala, 16-Ala, oxidized 15, and oxidized 16 were respectively treated with phosphate buffer (pH = 7.4, 100 mM) containing chymotrypsin at 37 °C . The chymotrypsin concentration used for the digestion of 15 - Ala and oxidized 15 is 0.3 μ g/mL . The chymotrypsin concentration used for the digestion of 16 - Ala and oxidized 16 is 5.0 μ g/mL . At pred e fined time s , 50 μ L aliqu ots were taken with a pipette , quenched with 70 μ L 10% HPO 3 , and analyzed by HPLC. […]"}, "[5]": {"assay": "Thermal denaturation monitored using circular dichroism", "format": "physicochemical", "details": "CD, 50 μM peptide in water, 25–95 °C, ellipticity at 220 nm", "procedure": "Circular dichroism (CD) spectra were measured using a 1.0 mm path length cuvette at room temperature (25 ℃). All measured peptides were dissolved in water to reach a concentration of 50\nμM. The baseline signal (pure aqueous solution) were subtracted from each spectrum. CD spectra were recorded in a wavelength range of 190 ‒ 260 nm with a bandwidth of 2.0 nm, a date pitch of 1.0 nm, a response time of 8. 0 s, and a scanning speed of 50 nm/min. The thermal denaturation CD spectra were recorded in a temperature range of 25 ‒ 95 ℃ with a heating rate of 10 ℃/min. For temperature melts, the change of ellipticity at 220 nm was monitored as temperature increased f rom 25 to 95 °C in an increment of 10 °C. Other experimental conditions were consistent with those of […]"}}, "note": "pKi: −log10 of the molar value. Where a SMILES comes first, the peptide text is derived from it. Bridges are numbered along the chain shown (N, C = ends)."}
{"molecule": "CSCC[C@@H]1NC(=O)[C@@H]2CCCN2C(=O)[C@@H]2CSSC[C@H](NC(=O)[C@@H]3CCCN3C(=O)[C@@H](NC(=O)[C@H](Cc3ccccc3)NC(=O)[C@@H]3CSSC[C@H](NC(=O)CNC(C)=O)C(=O)NCC(=O)N[C@@H](CO)C(=O)N[C@@H](CC(=O)O)C(=O)N[C@@H](CCC(=O)O)C(=O)N[C@@H](C)C(=O)N3)CSSC[C@@H](C(N)=O)NC(=O)[C@H](Cc3c[nH]cn3)NC(=O)[C@H](CCC(N)=O)NC(=O)[C@H](C)NC1=O)C(=O)N[C@@H](CO)C(=O)N[C@@H](Cc1c[nH]cn1)C(=O)N1CCC[C@H]1C(=O)N[C@@H](CCC(=O)O)C(=O)N[C@@H](CC(N)=O)C(=O)N2", "note": "[compound 17] (Ac-GCGSDEACFCPCSHPENCPMAQHC-NH2; disulfide 2-8, 10-24, 12-18)", "values": [{"measurement": "Binding affinity to MDM2 (FP competition), in words", "setting": "[1]", "result": "negligible binding affinity"}, {"measurement": "Binding affinity to Bcl-2 (SPR), in words", "setting": "[2]", "result": "negligible binding affinity"}]}
{"molecule": "Ac-GAMILLDTDIWAPASHPYAAPENIAA-NH2 [16-Ala, linear counterpart (Cys-to-Ala mutant) of 16]", "values": [{"measurement": "Binding affinity to Bcl-2 (SPR), in words", "setting": "[2]", "result": "negligible affinity"}]}
{"molecule": "CC[C@H](C)[C@@H]1NC(=O)[C@@H]2CSSC[C@H](NC(=O)[C@H](CC(C)C)NC(=O)[C@H](CCC(=O)O)NC(=O)[C@@H]3CCCN3C(=O)[C@H](Cc3ccccc3)NC1=O)C(=O)N1CCC[C@H]1C(=O)N[C@@H](Cc1c[nH]c3ccccc13)C(=O)N[C@@H]([C@@H](C)CC)C(=O)N[C@@H](C(C)C)C(=O)N[C@H]1CSSC[C@H](NC(=O)CNC(C)=O)C(=O)N[C@@H](CCC(=O)O)C(=O)N[C@@H](CCCCN)C(=O)N[C@@H](C)C(=O)N[C@@H]([C@@H](C)O)C(=O)N[C@@H](CCC(=O)O)C(=O)N[C@@H](CO)C(=O)N[C@@H](CCC(=O)O)C(=O)N[C@@H](CO)C(=O)N3CCC[C@H]3C(=O)N[C@@H](CSSC[C@@H](C(N)=O)NC1=O)C(=O)N1CCC[C@H]1C(=O)N2", "note": "[Oxidized 15] (Ac-GCEKATESESPCPCIFPELCPWIVCC-NH2; disulfide 2-25, 12-26, 14-20)", "values": [{"measurement": "Binding affinity to Bcl-2 (SPR), in words", "setting": "[2]", "result": "no binding affinity"}, {"measurement": "Binding affinity to streptavidin (SPR), in words", "setting": "[3]", "result": "no binding affinity"}, {"measurement": "Stability toward proteolysis by chymotrypsin compared to linear analog", "setting": "[4]; chymotrypsin 0.3 μg/mL, versus 15-Ala", "result": "significantly more stable"}, {"measurement": "Stability to heat treatment (aggregation)", "setting": "[5]", "result": "no aggregation was observed"}]}
{"molecule": "CC[C@H](C)[C@@H]1NC(=O)[C@H](CC(N)=O)NC(=O)[C@H](CCC(=O)O)NC(=O)[C@@H]2CCCN2C(=O)[C@@H]2CSSC[C@H](NC(=O)[C@@H]3CCCN3C(=O)[C@@H]3CSSC[C@@H](C(N)=O)NC(=O)[C@H](CSSC[C@H](NC(=O)CNC(C)=O)C(=O)N[C@@H](CCSC)C(=O)N[C@@H]([C@@H](C)CC)C(=O)N[C@@H](CC(C)C)C(=O)N[C@@H](CC(C)C)C(=O)N[C@@H](CC(=O)O)C(=O)N[C@@H]([C@@H](C)O)C(=O)N[C@@H](CC(=O)O)C(=O)N[C@@H]([C@@H](C)CC)C(=O)N[C@@H](Cc4c[nH]c5ccccc45)C(=O)N3)NC1=O)C(=O)N[C@@H](CO)C(=O)N[C@@H](Cc1c[nH]cn1)C(=O)N1CCC[C@H]1C(=O)N[C@@H](Cc1ccc(O)cc1)C(=O)N[C@@H](C)C(=O)N2", "note": "[Oxidized 16]", "values": [{"measurement": "Binding affinity to MDM2 (FP competition), in words", "setting": "[1]", "result": "negligible binding affinity"}, {"measurement": "kd, binding kinetics with Bcl-2 (SPR)", "setting": "[2]; Biacore T200, 1:1 binding model, peptide 0.16–2.56 μM", "result": 0.0498, "unit": "s⁻¹"}, {"measurement": "kon", "setting": "[2]; read-out: ka, binding kinetics with Bcl-2 (SPR)", "result": 126000, "unit": "M⁻¹ s⁻¹"}, {"measurement": "Binding affinity to streptavidin (SPR), in words", "setting": "[3]", "result": "negligible binding affinity"}, {"measurement": "Stability toward proteolysis by chymotrypsin compared to linear analog", "setting": "[4]; chymotrypsin 5.0 μg/mL, versus 16-Ala", "result": "significantly more stable"}, {"measurement": "Stability to heat treatment (aggregation)", "setting": "[5]", "result": "no aggregation was observed"}]}
{"molecule": "CC[C@H](C)[C@@H]1NC(=O)[C@H](Cc2c[nH]c3ccccc23)NC(=O)[C@@H]2CCCN2C(=O)[C@@H]2CSSC[C@H](NC(=O)[C@@H]3CCCN3C(=O)[C@@H]3CSSC[C@@H](C(N)=O)NC(=O)[C@H](CSSC[C@H](NC(C)=O)C(=O)NCC(=O)N[C@@H](CO)C(=O)NCC(=O)N[C@@H](CO)C(=O)NCC(=O)N[C@@H](CO)C(=O)NCC(=O)N[C@@H](CO)C(=O)NCC(=O)N3)NC(=O)[C@H](CCCNC(=N)N)NC1=O)C(=O)N[C@@H]([C@@H](C)CC)C(=O)N[C@@H](Cc1c[nH]c3ccccc13)C(=O)N1CCC[C@H]1C(=O)N[C@@H](CCC(=O)O)C(=O)N[C@@H](CC(C)C)C(=O)N2", "note": "[compound 8] (Ac-CGSGSGSGSGCPCIWPELCPWIRCC-NH2; disulfide 1-24, 11-25, 13-19)", "values": [{"measurement": "pKi", "setting": "[1]; PBS pH 7.4, room temperature, peptides HPLC-purified >95%", "result": 6.79}]}
{"molecule": "Ac-CGSGSGSGCGCPCIWPELCPWIRSC-NH2 (also: bicyclic or more (positions not given here)) [compound 11, original peptide template of the 11-X14 library]", "values": [{"measurement": "Binding affinity to streptavidin (SPR), in words", "setting": "[3]", "result": "no binding affinity"}]}
